In patent US9580432B2, “Fused pyrimidine compound or salt thereof” (TAIHO PHARMACEUTICAL CO., LTD., priority 2013, dated 2017):

Assays:
[1] = Influence on body weight of SD rat by repeated administration (in vivo); conditions: two weeks; for Relative body weight ratio (%): 750 mg/kg orally once a day, relative to vehicle-administered group
Protocol: The rats were grouped as follows, with four animals in each group, by a random classification method such that the average body weights of the each groups would be almost uniform (Day 1).
The body weight change (BWC) was used as an index indicating the systemic toxicity caused by drug administration. The BWC was calculated by the following formula. BWC (%)=([(Rat body weight on 14 days after the administration)−(rat body weight at the time of grouping)]/(rat body weight at the time of grouping))×100
The relative body weight change ratios in the each compound-administered groups were calculated by the following formula when the BWC in the vehicle-administered group was set as 1, and the results are indicated in Table 52. Relative body weight change ratio (%)=(BWC in the compound-administered group)/(BWC in the vehicle-administered group)×100

[2] = biological target: purified recombinant human BTK protein (Homo sapiens (Human), UniProt Q06187); assay: Measurement of BTK inhibitory activity (in vitro); type: biochemical; conditions: FL-PEPTIDE 2 substrate 1 μM, ATP 45 μM, 40 minutes at 25° C.
Chain of purified recombinant human BTK protein (Q06187 whole entry): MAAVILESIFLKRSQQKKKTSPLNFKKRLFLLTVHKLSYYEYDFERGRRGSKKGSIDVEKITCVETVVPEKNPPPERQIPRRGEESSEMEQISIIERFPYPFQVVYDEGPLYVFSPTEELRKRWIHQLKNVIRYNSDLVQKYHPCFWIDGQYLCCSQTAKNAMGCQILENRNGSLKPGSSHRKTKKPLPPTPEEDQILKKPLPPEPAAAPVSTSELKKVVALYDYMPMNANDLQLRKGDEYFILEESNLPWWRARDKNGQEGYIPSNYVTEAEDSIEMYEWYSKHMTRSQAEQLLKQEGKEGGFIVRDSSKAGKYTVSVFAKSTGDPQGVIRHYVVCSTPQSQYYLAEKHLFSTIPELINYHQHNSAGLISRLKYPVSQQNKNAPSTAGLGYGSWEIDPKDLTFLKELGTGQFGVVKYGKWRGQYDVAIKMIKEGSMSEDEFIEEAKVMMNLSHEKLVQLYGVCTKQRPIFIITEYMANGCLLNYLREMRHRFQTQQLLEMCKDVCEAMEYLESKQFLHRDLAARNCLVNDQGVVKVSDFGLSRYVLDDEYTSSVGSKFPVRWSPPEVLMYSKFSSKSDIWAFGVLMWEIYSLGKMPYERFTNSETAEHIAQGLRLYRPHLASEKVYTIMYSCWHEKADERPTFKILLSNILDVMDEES
Summary of the method: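 Recombinant human BTK with FL-PEPTIDE 2 substrate (1 μM), 45 μM ATP and 10 mM MgCl2 in 20 mM HEPES pH 7.5, 2 mM DTT, 0.01% Triton X-100, 5% DMSO; 40 min at 25° C. Reaction stopped with 30 mM EDTA. Phosphorylated and unphosphorylated peptide separated and detected by microchannel capillary electrophoresis.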

[3] = test system: purified recombinant human EGFR protein / BTK; assay: BTK inhibition selectivity compared with EGFR kinase inhibitory activity (in vitro); type: biochemical; conditions: EGFR assay ATP 1.5 μM
A431 cells / TMD8 cells = assay: Proliferation inhibitory activity against cell lines expressing BTK and EGFR (in vitro), comparison of selectivity; type: cell-based, human; conditions: ratio from GI50 (nM), 3 days culture, CELLTITER GLO
Summary of the method: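 BTK-expressing TMD8 DLBCL cells (RPMI1640/10% FBS) and EGFR-overexpressing A431 epidermoid carcinoma cells (DMEM/10% FBS) cultured 1 day, then exposed to compound (0.2% DMSO final) for 3 days at 37° C. Luminescence read-out; inhibition ratio % = (C−T)/(C−C0)×100, with A431/TMD8 ratio as selectivity index.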

[4] = test system: Human B cell lymphoma-derived cell line TMD8; assay: Antitumor effect, TMD8 subcutaneously transplanted into SCID mice; type: in vivo; conditions: Day 17; 50 mg/kg orally once a day
Source text: (§1) Human B cell lymphoma-derived cell line TMD8 was subcutaneously transplanted into SCID mice. At the time point when the volume of engrafted tumors reached 100 to 200 mm^3, the mice were divided into groups, with 5 animals in each group, by a random classification method (Day 1) such that the tumor volumes in the various groups would be uniform, and oral administration was initiated. […] In order to compare the antitumor effect caused by the drug administration, the relative tumor volume (RTV), which was the proliferation ratio of tumor when the tumor volume at the time of grouping was set as one, was determined by the following formula. RTV=(Tumor volume on the day of tumor volume measurement)/(tumor volume at the time of grouping)

[5] = Body weight change ratio in TMD8-transplanted SCID mice; type: in vivo; conditions: Day 17; 50 mg/kg orally once a day
Source text: as §1
The body weight change (BWC) was used as an index indicating the systemic toxicity caused by drug administration. BWC (%)=([(mice body weight on the day of weight measurement)−(mice body weight at the time of grouping)]/(mice body weight at the time of grouping))×100 (Mathematical Formula 1)

## C=CC(=O)N1CCC[C@@H](n2nc(-c3ccc(Oc4ccccc4)cc3)c3c(N)ncnc32)C1 [Comparative Example Compound 1, (R)-1-(3-(4-amino-3-(4-phenoxyphenyl)-1H-pyrazolo[3,4-d]pyrimidin-1-yl)piperidin-1-yl)prop-2-en-1-one, reference compound]
[1]; 280 mg/kg orally once a day
  individuals suffering from loose bowel: individuals suffering from loose bowel were recognized
  width of rat body weight increase compared with the vehicle-administered group: very small

## C=CC(=O)N1CCC[C@@H](n2nc(C(=O)Nc3nc4cc(F)ccc4o3)c3c(N)ncnc32)C1 [Example 12, (R)-1-(1-acryloylpiperidin-3-yl)-4-amino-N-(5-fluorobenzo[d]oxazol-2-yl)-1H-pyrazolo[3,4-d]pyrimidine-3-carboxamide]
[2]
  IC50: 0.433 nM
[3]
  EGFR inhibitory activity IC50 value (nM)/BTK inhibitory activity IC50 value (nM): 84.2
A431 cells / TMD8 cells
  A431 cell proliferation inhibition ratio/TMD8 cell proliferation inhibitio ratio: 3077.4
[4]
  RTV (relative tumor volume): 0.13
[5]
  BWC (body weight change): 6.0%
[1]
  Relative body weight ratio (%): 91.2%

## C=CC(=O)N1CCC[C@@H](n2nc(C(=O)Nc3nc4ccccc4o3)c3c(N)ncnc32)C1 [Example 13, (R)-1-(1-acryloylpiperidin-3-yl)-4-amino-N-(benzo[d]oxazol-2-yl)-1H-pyrazolo[3,4-d]pyrimidine-3-carboxamide]
[2]
  IC50: 0.813 nM
[3]
  EGFR inhibitory activity IC50 value (nM)/BTK inhibitory activity IC50 value (nM): 28.8
A431 cells / TMD8 cells
  A431 cell proliferation inhibition ratio/TMD8 cell proliferation inhibitio ratio: 4872.2
[4]
  RTV (relative tumor volume): 4.24
[5]
  BWC (body weight change): 3.8%
[1]
  Relative body weight ratio (%): 79.1%

## CN(C)C/C=C/C(=O)N1CC[C@@H](n2nc(C(=O)Nc3nc4cc(-c5ccccc5)ccc4o3)c3c(N)ncnc32)C1 [Example 42, (R,E)-4-amino-N-(5-phenylbenzo[d]oxazol-2-yl)-1-(1-(4-(dimethylamino)but-2-enoyl)pyrrolidin-3-yl)-1H-pyrazolo[3,4-d]pyrimidine-3-carboxamide]
[2]
  IC50: 0.771 nM
[3]
  EGFR inhibitory activity IC50 value (nM)/BTK inhibitory activity IC50 value (nM): 19.4
A431 cells / TMD8 cells
  A431 cell proliferation inhibition ratio/TMD8 cell proliferation inhibitio ratio: 3934.1

## CN(C)C/C=C/C(=O)N1CC[C@@H](n2nc(C(=O)Nc3nc4cc(C(F)(F)F)ccc4o3)c3c(N)ncnc32)C1 [Example 44, (R,E)-4-amino-N-(5-(trifluoromethyl)benzo[d]oxazol-2-yl)-1-(1-(4-(dimethylamino)but-2-enoyl)pyrrolidin-3-yl)-1H-pyrazolo[3,4-d]pyrimidine-3-carboxamide]
[2]
  IC50: 0.877 nM
[3]
  EGFR inhibitory activity IC50 value (nM)/BTK inhibitory activity IC50 value (nM): 17.1
A431 cells / TMD8 cells
  A431 cell proliferation inhibition ratio/TMD8 cell proliferation inhibitio ratio: 10905.1

## CN(C)C/C=C/C(=O)N1CC[C@@H](n2cc(C(=O)Nc3nc4cc(Cl)ccc4o3)c3c(N)ncnc32)C1 [Example 49, (R,E)-4-amino-N-(5-chlorobenzo[d]oxazol-2-yl)-7-(1-(4-(dimethylamino)but-2-enoyl)pyrrolidin-3-yl) 7H-pyrrolo[2,3-d]pyrimidine-5-carboxamide]
[2]
  IC50: 1.53 nM
[3]
  EGFR inhibitory activity IC50 value (nM)/BTK inhibitory activity IC50 value (nM): 24.8
A431 cells / TMD8 cells
  A431 cell proliferation inhibition ratio/TMD8 cell proliferation inhibitio ratio: >3260.5

## CCN(C)C/C=C/C(=O)N1CC[C@@H](n2cc(C(=O)Nc3nc4cc(Cl)ccc4o3)c3c(N)ncnc32)C1 [Example 50, (R,E)-4-amino-N-(5-chlorobenzo[d]oxazol-2-yl)-7-(1-(4-(ethyl(methyl)amino)but-2-enoyl)pyrrolidin-3-yl) 7H-pyrrolo[2,3-d]pyrimidine-5-carboxamide]
[2]
  IC50: 1.41 nM
[3]
  EGFR inhibitory activity IC50 value (nM)/BTK inhibitory activity IC50 value (nM): 22.1
A431 cells / TMD8 cells
  A431 cell proliferation inhibition ratio/TMD8 cell proliferation inhibitio ratio: >2767.8

## CCN(CC)C/C=C/C(=O)N1CC[C@@H](n2cc(C(=O)Nc3nc4cc(Cl)ccc4o3)c3c(N)ncnc32)C1 [Example 51, (R,E)-4-amino-N-(5-chlorobenzo[d]oxazol-2-yl)-7-(1-(4-(diethylamino)but-2-enoyl)pyrrolidin-3-yl) 7H-pyrrolo[2,3-d]pyrimidine-5-carboxamide]
[2]
  IC50: 1.48 nM
[3]
  EGFR inhibitory activity IC50 value (nM)/BTK inhibitory activity IC50 value (nM): 31.1
A431 cells / TMD8 cells
  A431 cell proliferation inhibition ratio/TMD8 cell proliferation inhibitio ratio: >2044.6

## CC(C)N(C)C/C=C/C(=O)N1CC[C@@H](n2cc(C(=O)Nc3nc4cc(Cl)ccc4o3)c3c(N)ncnc32)C1 [Example 52, (R,E)-4-amino-N-(5-chlorobenzo[d]oxazol-2-yl)-7-(1-(4-(isopropyl(methyl)amino)but-2-enoyl)pyrrolidin-3-yl) 7H-pyrrolo[2,3-d]pyrimidine-5-carboxamide]
[2]
  IC50: 1.2 nM
[3]
  EGFR inhibitory activity IC50 value (nM)/BTK inhibitory activity IC50 value (nM): 20.6
A431 cells / TMD8 cells
  A431 cell proliferation inhibition ratio/TMD8 cell proliferation inhibitio ratio: >3617.9

## Nc1ncnc2c1c(C(=O)Nc1nc3cc(Cl)ccc3o1)cn2[C@@H]1CCN(C(=O)/C=C/CN2CCCC2)C1 [Example 53, (R,E)-4-amino-N-(5-chlorobenzo[d]oxazol-2-yl)-7-(1-(4-(pyrrolidin-1-yl)but-2-enoyl)pyrrolidin-3-yl) 7H-pyrrolo[2,3-d]pyrimidine-5-carboxamide]
[2]
  IC50: 1.68 nM
[3]
  EGFR inhibitory activity IC50 value (nM)/BTK inhibitory activity IC50 value (nM): 25.5
A431 cells / TMD8 cells
  A431 cell proliferation inhibition ratio/TMD8 cell proliferation inhibitio ratio: >1535.4

## Nc1ncnc2c1c(C(=O)Nc1nc3cc(Cl)ccc3o1)cn2[C@@H]1CCN(C(=O)/C=C/CN2CCCCC2)C1 [Example 54, (R,E)-4-amino-N-(5-chlorobenzo[d]oxazol-2-yl)-7-(1-(4-(piperidin-1-yl)but-2-enoyl)pyrrolidin-3-yl) 7H-pyrrolo[2,3-d]pyrimidine-5-carboxamide]
[2]
  IC50: 1.44 nM
[3]
  EGFR inhibitory activity IC50 value (nM)/BTK inhibitory activity IC50 value (nM): 37.1
A431 cells / TMD8 cells
  A431 cell proliferation inhibition ratio/TMD8 cell proliferation inhibitio ratio: >2675.9

## C=CC(=O)N1CCCC(Cn2nc(C(=O)Nc3nc4ccccc4o3)c3c(N)ncnc32)C1 (centres unmarked) [Example 67, 1-((1-acryloylpiperidin-3-yl)methyl)-4-amino-N-(benzo[d]oxazol-2-yl)-1H-pyrazolo[3,4-d]pyrimidine-3-carboxamide]
[2]
  IC50: 14 nM
[3]
  EGFR inhibitory activity IC50 value (nM)/BTK inhibitory activity IC50 value (nM): 18.0
A431 cells / TMD8 cells
  A431 cell proliferation inhibition ratio/TMD8 cell proliferation inhibitio ratio: >2168.7

## C=CC(=O)N1CCC(Cn2nc(C(=O)Nc3nc4ccccc4o3)c3c(N)ncnc32)CC1 [Example 68, 1-((1-acryloylpiperidin-4-yl)methyl)-4-amino-N-(benzo[d]oxazol-2-yl)-1H-pyrazolo[3,4-d]pyrimidine-3-carboxamide]
[2]
  IC50: 13.2 nM
[3]
  EGFR inhibitory activity IC50 value (nM)/BTK inhibitory activity IC50 value (nM): 11.4
A431 cells / TMD8 cells
  A431 cell proliferation inhibition ratio/TMD8 cell proliferation inhibitio ratio: >4785.8

## C=CC(=O)N1CC(Cn2nc(C(=O)Nc3nc4ccccc4o3)c3c(N)ncnc32)C1 [Example 70, 1-((1-acryloylazetidin-3-yl)methyl)-4-amino-N-(benzo[d]oxazol-2-yl)-1H-pyrazolo[3,4-d]pyrimidine-3-carboxamide]
[2]
  IC50: 3.17 nM
[3]
  EGFR inhibitory activity IC50 value (nM)/BTK inhibitory activity IC50 value (nM): 12.2
A431 cells / TMD8 cells
  A431 cell proliferation inhibition ratio/TMD8 cell proliferation inhibitio ratio: >8369.4

## C=CC(=O)N[C@H]1CC[C@@H](n2nc(C(=O)Nc3nc4ccccc4o3)c3c(N)ncnc32)CC1 [Example 71, 1-((1S,4S)-4-acrylamidocyclohexyl)-4-amino-N-(benzo[d]oxazol-2-yl)-1H-pyrazolo[3,4-d]pyrimidine-3-carboxamide]
[2]
  IC50: 5.89 nM
[3]
  EGFR inhibitory activity IC50 value (nM)/BTK inhibitory activity IC50 value (nM): 42.0
A431 cells / TMD8 cells
  A431 cell proliferation inhibition ratio/TMD8 cell proliferation inhibitio ratio: >7657.0

## C=CC(=O)N[C@H]1CC[C@H](n2nc(C(=O)Nc3nc4ccccc4o3)c3c(N)ncnc32)CC1 [Example 72, 1-((1R,4R)-4-acrylamidocyclohexyl)-4-amino-N-(benzo[d]oxazol-2-yl)-1H-pyrazolo[3,4-d]pyrimidine-3-carboxamide]
[2]
  IC50: 28.1 nM
[3]
  EGFR inhibitory activity IC50 value (nM)/BTK inhibitory activity IC50 value (nM): 12.4
A431 cells / TMD8 cells
  A431 cell proliferation inhibition ratio/TMD8 cell proliferation inhibitio ratio: >2802.7
